Laboratory results from patent publication US6747039B2, “Aza-benzothiopyranoindazoles with antitumor activity” (Albany Molecular Research, Inc., priority 2002, dated 2004).
pIC50: −log10 of the molar value.

test system: HeLa S-3 cells; assay: Inhibition of cell growth (sulforhodamine B) to determine GI50; type: cell-based; conditions: Homo sapiens, HeLa S3; HeLa cells; Table 5, aza-analogs; read-out: IC50 (aza-analogs)
Experimental: Growth inhibition (GI50) values were measured with HeLa S-3 cells selected for growth on plastic. The procedure was based on the protocol of Skehan et al. (Skehan, P., et al., J. Natl. Cancer Inst., 82:1107-1112 (1990), which is hereby incorporated by reference). HeLa cells were plated at 2×10^4 cells/well in 96 well plates. One day later, a control plate was fixed by addition of TCA to 5%. After five rinses with tap water, the plate was air dried and stored at 4° C. Test compounds were added to the remaining plates at 10-fold dilutions between 0.01 and 100 μM. Two days later, all plates were fixed as described above. Cells were then stained by the addition of 100 μl per well of 0.4% sulforhodamine B (SRB) in 1% acetic acid for 30 min at 4° C. Wells were then quickly rinsed 5× with acetic acid (1%) and allowed to air dry. The SRB was then solubilized by the addition of 100 μl per well of unbuffered 10 mM Tris base. Dye was quantified by measuring absorbance at 490 nm on a Molecular Devices kinetic microplate reader. Growth at each inhibitor concentration relative to the untreated control was calculated according to the following equation: percent growth=100×(T−To)/(C−To), where T was the average optical density (OD) of the test wells after 2 days of treatment, To was the average OD of the wells in the control plate on day 0 and C was the average OD of untreated wells. Plots of percent growth versus inhibitor concentration were used to determine the GI50.
The data below shown in Table 4 summarizes the in vitro cyclin/cdk inhibition constants (IC50) of HeLa Cells for the compounds of the current invention.

Compound | pIC50
CCN(CC)CCNc1cccc2sc3ccncc3c(=O)c12 | 5.52
CCN(CC)CCNc1ccc(CNC=O)c2sc3ccncc3c(=O)c12 | 6.00
CCN(CC)CCNc1ccc(CNS(C)(=O)=O)c2sc3ccncc3c(=O)c12 | 6.40
CCN(CC)CCNc1ccc(CNC(=O)OC)c2sc3ccncc3c(=O)c12 | 6.52
CCN(CC)CCn1nc2c3c(cccc31)Sc1ccncc1-2 | 6.00
CCN(CC)CCn1nc2c3c(c(CNC(=O)OC)ccc31)Sc1ncccc1-2 [drawing 120] | 6.30

The next lines start with the values.

pIC50 | Compound
6.15 | CCN(CC)CCNc1ccc(CN)c2sc3ccncc3c(=O)c12
6.70 | CCN(CC)CCn1nc2c3c(c(CN)ccc31)Sc1ccncc1-2 [drawing 112]
6.70 | CCN(CC)CCn1nc2c3c(c(CNC=O)ccc31)Sc1ccncc1-2 [drawing 114]
7.00 | CCN(CC)CCn1nc2c3c(c(CNC(=O)OC)ccc31)Sc1ccncc1-2 [drawing 116]
6.52 | CCN(CC)CCn1nc2c3c(c(CNS(C)(=O)=O)ccc31)Sc1ccncc1-2 [drawing 118]
6.52 | CCN(CC)CCn1nc2c3c(c(CNS(C)(=O)=O)ccc31)Sc1ncccc1-2 [drawing 122]
6.70 | CCN(CC)CCn1nc2c3c(c(CN)ccc31)Sc1ncccc1-2 [drawing 124]
6.30 | CCN(CC)CCn1nc2c3c(c(CNC=O)ccc31)Sc1ncccc1-2 [drawing 126]

same assay, conditions: Homo sapiens, HeLa S3; HeLa cells; Table 5, carbocyclic congeners; read-out: IC50 (carbocyclic congeners)

Compound | pIC50
CCN(CC)CCNc1ccc(CNC=O)c2sc3ccccc3c(=O)c12 [reference compound] | 5.52
CCN(CC)CCNc1ccc(CN)c2sc3ccccc3c(=O)c12 [reference compound] | 6.22
CCN(CC)CCn1nc2c3c(c(CNC(=O)OC)ccc31)Sc1ccccc1-2 [reference compound] | 5.52
CCN(CC)CCn1nc2c3c(c(CNS(C)(=O)=O)ccc31)Sc1ccccc1-2 [reference compound] | 6.05

The next lines start with the values.

pIC50 | Compound
< 5.00 | CCN(CC)CCNc1cccc2sc3ccccc3c(=O)c12 [reference compound]
5.05 | CCN(CC)CCn1nc2c3c(cccc31)Sc1ccccc1-2 [reference compound]
6.00 | CCN(CC)CCn1nc2c3c(c(CN)ccc31)Sc1ccccc1-2 [reference compound]
6.00 | CCN(CC)CCn1nc2c3c(c(CNC=O)ccc31)Sc1ccccc1-2 [reference compound]

same assay, conditions: Homo sapiens, HeLa S3; Table 6, comparison of nitrogen position, first compound of pair

Compound | GI50 [nM]
CCN(CC)CCn1nc2c3c(c(C)ccc31)Sc1ccncc1-2 | 100
CCN(CC)CCNc1ccc(C)c2sc3ccncc3c(=O)c12 | 400
CCN(CC)CCn1nc2c3c(c(CNC(=O)OC)ccc31)Sc1ccncc1-2 [drawing 131] | 100

Now from value to compound:

GI50 [nM] | Compound
200 | CCN(CC)CCn1nc2c3c(c(CN)ccc31)Sc1ccncc1-2 [drawing 127]
50 | CCN(CC)CCn1nc2c3c(c(CNC=O)ccc31)Sc1ccncc1-2 [drawing 129]
200 | CCN(CC)CCn1nc2c3c(c(CNS(C)(=O)=O)ccc31)Sc1ccncc1-2 [drawing 133]

same assay, conditions: Homo sapiens, HeLa S3; Table 6, comparison of nitrogen position, second compound of pair

Compound | GI50 [nM]
CCN(CC)CCn1nc2c3c(c(C)ccc31)Sc1ncccc1-2 | 600
CCN(CC)CCNc1ccc(C)c2sc3ncccc3c(=O)c12 | 3000
CCN(CC)CCn1nc2c3c(c(CN)ccc31)Sc1ncccc1-2 [drawing 128] | 200

Further lines, results first:

GI50 [nM] | Compound
500 | CCN(CC)CCn1nc2c3c(c(CNC=O)ccc31)Sc1ncccc1-2 [drawing 130]
500 | CCN(CC)CCn1nc2c3c(c(CNC(=O)OC)ccc31)Sc1ncccc1-2 [drawing 132]
300 | CCN(CC)CCn1nc2c3c(c(CNS(C)(=O)=O)ccc31)Sc1ncccc1-2 [drawing 134]
